We go through ten substances from publication PMC3082566, “PTB Domain-Directed Substrate Targeting in a Tyrosine Kinase from the Unicellular Choanoflagellate Monosiga brevicollis” (PLoS ONE, 2011).

The term Km denotes the substrate concentration at which the rate is half of its maximum.

The test system of assay [1] is HMTK1. The experiment in a line: Phosphorylation of peptide substrates by purified HMTK1 (phosphocellulose paper assay). The format is biochemical, Monosiga brevicollis. The conditions noted are these: 6 minutes at 30°C; for HMTK1 activity toward peptide (comparison of c-Src and Monosiga-derived peptides): 750 µM peptide, 400 nM HMTK1, pH 7.4, phosphocellulose paper assay, Fig. 2A. Here is the method:
(§1) HMTK1 was expressed in Spodoptera frugiperda (Sf9) insect cells using the Bac-to-Bac system (Invitrogen). Sf9 cells (800 ml) were infected with HMTK1 baculovirus and harvested after three days. Cells were lysed in a French pressure cell, and His-tagged HMTK1 was purified using nickel-nitrilotriacetic acid resin (Qiagen), as described previously. Peak fractions were pooled and concentrated in an Amicon Ultrafiltration device (molecular weight cutoff: 30,000 daltons). The purified protein was stored in 40% glycerol at −20°C. The isolated PTB domain of HMTK1 was produced as a fusion with glutathione S-transferase (GST). E. coli cells (1 liter) expressing the GST fusion protein were lysed in a French pressure cell, and the GST-PTB protein was purified by chromatography on a glutathione-agarose column (Molecular Probes).
Kinase assays were performed by two methods. Initial activity measurements were performed by the phosphocellulose paper binding assay. Reaction mixtures contained 20 mM Tris-HCl (pH 7.4), 10 mM MgCl2, 0.2 mM ATP, [γ-^32P]-ATP (30–50 cpm/pmol), and varying amounts of HMTK1 and peptide substrates. All peptide substrates were purified by high pressure liquid chromatography and characterized by mass spectrometry prior to use. […] Initial rate kinetic measurements on the PTB ligand-containing substrate ([…]pYATLG) and on the Phe-containing PTB control ([…]) were carried out using a continuous spectrophotometric assay. Reactions were performed at 30°C in a final volume of 50 µl. The reactions contained 100 mM Tris pH 7.4, 10 mM MgCl2, 2 mM ATP, 1.5 mM phosphoenolpyruvate, 90 units/ml of pyruvate kinase, 109 units/ml of lactate dehydrogenase, and 1.2 mg/ml of NADH. For determination of Km values, the enzyme concentrations were 0.3–0.5 µM and the peptide concentrations ranged from 0–700 µM. Kinetic constants were determined by nonlinear fitting to the [substrate] vs. velocity curves using GraphPad Prism 4.
Figure 1 Monosiga brevicollis HMTK1 kinase. (A) Domain arrangement of HMTK1. (B) Amino acid sequence of the PTB-kinase HMTK1 construct used in this study. The HMD motif in the catalytic loop is underlined. (C) Tyrosine kinase activity of HMTK1. […] Reactions proceeded for 6 minutes at 30°C, and enzyme activity was measured using the phosphocellulose paper assay.
Figure 2 Additional HMTK1 peptide phosphorylation assays. Reactions proceeded for 6 minutes at 30°C, and enzyme activity was measured using the phosphocellulose paper assay. […] (B) Phosphorylation of SH2-binding substrates containing various spacer lengths between the pY residue and the phosphorylatable tyrosine. The peptides are shown schematically, with the phosphorylation site in blue, the SH2-binding ligand (pYEEI) in red, and the number of intervening amino acids in a box. The sequences of the peptides are: […]pYEEIG (spacer = 11), […]pYEEIG (spacer = 7), and […]pYEEIG (spacer = 3); SH2 control substrate, […] (spacer = 11); substrate peptide, […]. Reactions contained 70 µM peptides. Error bars show standard deviation.

The test system of another assay is MbSrc4. As to conditions: ref [13], [14]; cited from earlier work.
The next assay deals with MbSrc1. As to conditions: ref [13], [14]; cited from earlier work.
For assay [2], the system named is HMTK1. Nature of the assay: Co-expression of HMTK1 with mammalian receptor tyrosine kinases: binding or phosphorylation. The format is cell-based, Monosiga brevicollis. The conditions noted are these: data not shown.
Assay [3] has as its target SH2 binding substrate, spacer = 11 (…pYEEIG).
The target of assay [4] is PTB ligand-containing substrate (…pYATLG).
Chain of PTB ligand-containing substrate (…pYATLG) (peptide, as listed by the source): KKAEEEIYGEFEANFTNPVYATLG
In assay [5] the target is Phe-containing PTB control substrate (…).
Assay [6] concerns HMTK1. The experiment in a line: Steady-state kinetics, continuous spectrophotometric assay. It is filed as biochemical, Monosiga brevicollis. As to conditions: HMTK1 0.3–0.5 µM; peptide 0–700 µM; 100 mM Tris pH 7.4, 10 mM MgCl2, 2 mM ATP; 30°C; nonlinear fitting. How it is done:
Kinase assays were performed by two methods. Initial activity measurements were performed by the phosphocellulose paper binding assay. Reaction mixtures contained 20 mM Tris-HCl (pH 7.4), 10 mM MgCl2, 0.2 mM ATP, [γ-^32P]-ATP (30–50 cpm/pmol), and varying amounts of HMTK1 and peptide substrates. All peptide substrates were purified by high pressure liquid chromatography and characterized by mass spectrometry prior to use. The following substrates were used: c-Src peptide, […]; MbSTAT peptide, […]; RTKB2 peptide 1, […]; RTKB2 peptide 2, […]; SH2 binding substrates (varying linker lengths), […]pYEEIG, […]pYEEIG, and […]pYEEIG; SH2 control substrate, […]. Initial rate kinetic measurements on the PTB ligand-containing substrate ([…]pYATLG) and on the Phe-containing PTB control ([…]) were carried out using a continuous spectrophotometric assay. Reactions were performed at 30°C in a final volume of 50 µl. The reactions contained 100 mM Tris pH 7.4, 10 mM MgCl2, 2 mM ATP, 1.5 mM phosphoenolpyruvate, 90 units/ml of pyruvate kinase, 109 units/ml of lactate dehydrogenase, and 1.2 mg/ml of NADH. For determination of Km values, the enzyme concentrations were 0.3–0.5 µM and the peptide concentrations ranged from 0–700 µM. Kinetic constants were determined by nonlinear fitting to the [substrate] vs. velocity curves using GraphPad Prism 4.

The test system of assay [7] is HMTK1. Nature of the assay: Binding of purified HMTK1 to immobilized PTB ligand peptides. The conditions noted are these: 6.6 µg HMTK1; peptide on Affi-Gel resin; 1 hour at 4°C; anti-His6 Western; Fig. 5A. Further details: species or system Monosiga brevicollis. How it is done:
The PTB ligand-containing peptide, Phe-containing PTB control, and pYEEI peptide (EPQpYEEIG) were linked to Affi-Gel 15 resin (Bio-Rad) following the manufacturer's protocols. Purified HMTK1 or the isolated PTB domain were incubated for 1 hour at 4°C with the immobilized peptides. After binding, the beads were washed 4 times with 1 ml of binding buffer (50 mM Tris-HCl pH 7.5, 5 mM EDTA, 100 mM NaCl, 0.1% Triton X-100, 1 mM DTT, 0.5 mM Na3VO4). Bound proteins were eluted with SDS-PAGE loading buffer, separated by 10% SDS-PAGE, and visualized either by Coomassie blue staining or by Western blotting.
Figure 5 Substrate targeting by PTB ligand. (A) Purified HMTK1 (6.6 µg) was incubated with PTB ligand-containing substrate ([…]pYATLG), PTB control substrate ([…]), pYEEI peptide, or control resin in final volumes of 60 µl. After washing, bound proteins were eluted with SDS-PAGE sample buffer and analyzed by Western blotting with anti-His6-tag antibody. (B) The kinase activity of HMTK1 (300 nM) toward the PTB ligand-containing substrate or PTB control substrate (shown schematically) was determined using the phosphocellulose paper assay. The reaction contained 20 mM Tris-HCl (pH 7.4), 10 mM MgCl2, 0.2 mM ATP, 30 µM peptide, and [γ-^32P]-ATP. […] Incorporation of ^32P into the peptides was determined by scintillation counting.

In assay [8] the test system is FLAG-tagged wild-type HMTK1. The experiment in a line: Pulldown of FLAG-tagged wild-type HMTK1 from SYF cell lysates with immobilized peptides. It is filed as binding, Monosiga brevicollis. As to conditions: immobilized peptide; anti-FLAG Western; Fig. 3C. Here is the method: For expression in insect cells, HMTK1 DNA (encoding residues 341–761) was cloned into the EcoRI site of pFastbac-Hta (Invitrogen). FLAG-tagged HMTK1 was expressed in mammalian cells by subcloning into the BglII and BamHI sites of p3XFLAG-CMV (Sigma). The ΔPTB version of this construct was prepared by PCR amplification and subsequent recloning into the BamHI and EcoRI sites of p3XFLAG-CMV. Site-directed mutagenesis of FLAG-HMTK1 was carried out using the QuikChange kit (Stratagene). To express the isolated third PTB domain (residues 341–474) in bacterial cells, this PCR fragment was cloned into the EcoRI site of plasmid pGEX-4T-1 (GE Healthcare). All constructs were confirmed by DNA sequencing.
The PTB ligand-containing peptide, Phe-containing PTB control, and pYEEI peptide (EPQpYEEIG) were linked to Affi-Gel 15 resin (Bio-Rad) following the manufacturer's protocols. Purified HMTK1 or the isolated PTB domain were incubated for 1 hour at 4°C with the immobilized peptides. […]
Figure 3 Binding reactions with pYEEI-containing peptide. […] Bound proteins were eluted with SDS-PAGE sample buffer and analyzed by gel electrophoresis with Coomassie blue staining. […] After washing, bound proteins were eluted with SDS-PAGE sample buffer and analyzed by Western blotting with anti-GST antibody. […] After washing, bound proteins were analyzed by anti-FLAG Western blotting. […]

Assay [9] relates to HMTK1. Nature of the assay: Phosphorylation of SH2-binding substrates with varying spacer lengths by HMTK1 (phosphocellulose paper assay). It is filed as biochemical, Monosiga brevicollis. As to conditions: 70 µM peptides; spacer of 11 residues; 6 minutes at 30°C; Fig. 2B. Here is the method:
as §1
Kinase assays were performed by two methods. Initial activity measurements were performed by the phosphocellulose paper binding assay. […] Kinetic constants were determined by nonlinear fitting to the [substrate] vs. velocity curves using GraphPad Prism 4.
Figure 2 Additional HMTK1 peptide phosphorylation assays. Reactions proceeded for 6 minutes at 30°C, and enzyme activity was measured using the phosphocellulose paper assay. […]

Chain of SH2 binding substrate, spacer = 11 (…pYEEIG) (peptide, as listed by the source): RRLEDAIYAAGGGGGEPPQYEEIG

On to “AEEEIYGEFEAKKKG [c-Src peptide, acidophilic Src peptide, reference compound]”, for which the “HMTK1 activity toward peptide (comparison of c-Src and Monosiga-derived peptides)” value (“HMTK1 activity toward peptide” below) with HMTK1 [1] is recorded as “roughly equivalent activity”. Besides, the “phosphorylation of peptide by HMTK1” value with HMTK1 [1] (32P-labeled ATP, 500 µM peptide, 20 mM Tris-HCl pH 7.4, 10 mM MgCl2, 0.2 mM ATP, Fig. 1C) is “phosphorylated this peptide efficiently”.

Regarding AEEVYEAIADKKK [RTKB2 peptide 2], in the assay with MbSrc4, the “MbSrc4 activity compared with the c-Src peptide” value was “substantially higher activities”. For the same substance, in the assay on MbSrc1, the “MbSrc1 activity compared with the c-Src peptide” value is given as “substantially higher activities”. The “HMTK1 activity toward peptide” value in the assay on HMTK1 [1] was “highest activity”. Regarding “ErbB2: mammalian receptor tyrosine kinase”, the “binding or phosphorylation by co-expressed HMTK1” value in the assay on HMTK1 [2] is “failed to bind or phosphorylate”. “His-tagged HMTK1 PTB-kinase construct (residues 341-761) (enzyme)”: the other in assay [3] was found to be 5 fold. For the same substance, the Km of peptide phosphorylation by HMTK1 (continuous spectrophotometric assay, 30°C) in [4] worked out at 33 µM; in assay [5], 450 µM. “IGF1R: mammalian receptor tyrosine kinase”: the “binding or phosphorylation by co-expressed HMTK1” value in the assay with HMTK1 [2] is recorded as “failed to bind or phosphorylate”. “KKAEEEIYGEFEANFTNPVFATLG [Phe peptide, control peptide in which the pTyr residue was replaced with Phe]”: in the assay on HMTK1 [6], the Km was 450 µM. Moreover, the “binding to purified HMTK1” value with HMTK1 [7] is given as “undetectable”. Regarding “KKKASGYVMADIA [MbSTAT peptide, from a putative M. brevicollis STAT]”, the “HMTK1 activity toward peptide” value with HMTK1 [1] is reported as “no significant activity”.

As for “LRRApSLG [phospho-Kemptide, immobilized phosphoserine-containing peptide]”, in assay [8], the “binding to wild-type HMTK1 (SYF lysate)” value is “failed to bind”. For the substance “RRLEDAIYAAGGGGGEPPQpYEEIG [SH2-binding substrate]”, in the assay on HMTK1 [9], the “phosphorylation relative to control sequence lacking phosphotyrosine” value was determined as 5 fold and the “phosphorylation relative to shortened peptide containing only the substrate motif” value came to 5 fold. Take SEEVYGAVVDKKK [RTKB2 peptide 1]: in the assay with MbSrc4, the “MbSrc4 activity compared with the c-Src peptide” value is “substantially higher activities”. In addition, in the assay on MbSrc1, the “MbSrc1 activity compared with the c-Src peptide” value is on record as “substantially higher activities”. The “HMTK1 activity toward peptide” value in the assay with HMTK1 [1] was “roughly equivalent activity”.
